Each structure is given as a SMILES string.

One experiment has as its system mino cells. Put plainly: Activity test in Mino cells (CCK8 proliferation inhibition). To be noted: 3 days, read-out: Cell inhibition IC50. Type of experiment: cell-based. The method, then:
Cell culture: mino cells (culture conditions: RPMI1640 medium+15% FBS, 37° C., 5% CO2). Cell plating: The cells subcultured into the logarithmic growth phase were collected and transferred into a centrifuge tube, and centrifuged at 800 rpm for 5 min. The cells were resuspended in complete medium and counted. The cells were diluted and adjusted to a final concentration of 200000 cells/mL. The cells were then seeded into a 96-well plate with 100 μL per well. Cell administration: Each group of drug solutions was added into the 96-well plate, 100 μL per well, n=3 for each drug concentration. Meanwhile, negative wells (n=6) and blank wells (n=3) were set up. The 96-well plate was incubated in the incubator for further 3 days. CCK8 reagent was added to the 96-well plate, 20 μL per well, and then the plate was placed in the incubator for further 4 h. The absorbance of the solution was measured at a wavelength of 450 nm using an enzyme reader. The proliferation inhibition rate was calculated and the half inhibitory concentration IC50 value was calculated.
As to `COc1ccc(F)cc1C(=O)NCc1ccc(-c2nn(-c3ccc(N4CCN(CC5CCN(c6ccc(N7CCC(=O)NC7=O)c(C)c6)CC5)CC4)nc3)c3ncnc(N)c23)cc1C` [Compound I-4], the 50% inhibitory concentration (IC50) is 0.062 µM.

The experiment is the same for the next values; noted with them: Homo sapiens, 72 h, 3 days, read-out: Cell inhibition IC50.
As to `COc1ccc(F)cc1C(=O)NCc1ccc(-c2nn(-c3ccc(C4CCN(CC5CCN(c6ccc(N7CCC(=O)NC7=O)c(C)c6)CC5)CC4)cc3)c(N)c2C(N)=O)cc1` [Compound I-11, 5-amino-1-(4-(1-(1-(4-(2,4-dioxotetrahydropyrimidin-1(2H)-yl)-3-methylphenyl)piperidin-4-yl)methyl)piperidin-4-yl)phenyl)-3-(4-(((5-fluoro-2-methoxybenzamido)methyl)phenyl)-1H-pyrazole-4-carboxamide], the IC50 is below 0.025 µM.
With `COc1ccc(F)cc1C(=O)NCc1ccc(-c2nn(-c3ccc(N4CCC(CN5CCN(c6ccc(N7CCC(=O)NC7=O)c(C)c6)CC5)CC4)cc3)c3ncnc(N)c23)cc1` [Compound I-42], the IC50 was below 0.025 µM.
The same measure, in the same setting: with `COc1ccc(F)cc1C(=O)NCc1ccc(-c2nn(-c3ccc(C4CCN(CC5CCN(c6ccc(N7CCC(=O)NC7=O)cc6)CC5)CC4)cc3)c3ncnc(N)c23)cc1` [Compound I-6, N-(4-(4-amino-1-(4-(1-((1-(4-(2,4-dioxotetrahydropyrimidin-1(2H)-yl)phenyl)piperidin-4-yl)methyl)piperidinyl)phenyl)-1H-pyrazolo[3,4-d]pyrimidin-3-yl)benzyl)-5-fluoro-2-methoxybenzamide] the figure was 0.016 µM; with `Cc1cc(N2CCC(CN3CCN(c4ccc(-n5nc(-c6ccc(Oc7ccccc7)cc6)c6c(N)ncnc65)cc4)CC3)CC2)ccc1N1CCC(=O)NC1=O` [Compound I-55], below 0.1 µM; with `COc1ccc(F)cc1C(=O)NCc1ccc(-c2nn(-c3ccc(N4CCN(CC5CCN(c6ccc7c(c6)CN(C6CCC(=O)NC6=O)C7=O)CC5)CC4)nc3)c3ccnc(N)c23)cc1` (stereo not shown) [II-12, N-(4-(4-amino-1-(6-(4-((1-(2-(2,6-dioxopiperidin-3-yl)-1-oxoisoindol-5-yl)piperidin-4-yl)methyl)piperazin-1-yl)pyridin-3-yl)-1H-pyrazolo[4,3-c]pyridin-3-yl)benzyl)-5-fluoro-2-methoxybenzamide], below 0.5 µM.
With `CCc1cc(-c2nc(-c3ccc(CNC(=O)c4cc(F)ccc4OC)cc3)c3c(N)nccn23)ccc1N1CCN(CC2CCN(c3ccc(N4CCC(=O)NC4=O)c(C)c3)CC2)CC1` [Compound I-49], the 50% inhibitory concentration (IC50) was below 0.1 µM.
With `COc1ccc(F)cc1C(=O)NCc1ccc(-c2nn(-c3ccc(C4CCN(CC5CCN(c6ccc(N7CCC(=O)NC7=O)c(C)c6)CC5)CC4)cc3)c3ncnc(N)c23)cc1F` [Compound I-44, N-(4-(4-amino-1-(4-(1-((1-(4-(2,4-dioxotetrahydropyrimidin-1(2H)-yl)-3-methylphenyl)piperidin-4-yl)methyl)piperidinyl)phenyl)-1H-pyrazolo[3,4-d]pyrimidin-3-yl)-2-fluorobenzyl)-5-fluoro-2-methoxybenzamide], the IC50 was below 0.025 µM.
In the case of `COc1ccc(F)cc1C(=O)NCc1ccc(-c2nn(-c3ccc(N4CCN(CC5CCN(c6ccc7c(c6)CN(C6CCC(=O)NC6=O)C7=O)CC5)C[C@@H]4C)nc3)c3ncnc(N)c23)cc1` (stereo partly drawn) [II-38, N-(4-(4-amino-1-(6-((2S)-4-((1-(2-(2,6-dioxopiperidin-3-yl)-1-oxoisoindol-5-yl)piperidin-4-yl)methyl)-2-methylpiperazin-1-yl)pyridin-3-yl)-1H-pyrazolo[3,4-d]pyrimidin-3-yl)benzyl)-5-fluoro-2-methoxybenzamide], the IC50 was below 0.025 µM.
Regarding `Cc1cc(N2CCN(C[C@@H]3CCCC[C@H]3CN3CCN(c4ccc(-n5nc(-c6ccc(Oc7ccccc7)cc6)c6c(N)ncnc65)cn4)CC3)CC2)ccc1N1CCC(=O)NC1=O` [III-20, 1-(4-(4-(((1R,2R)-2-((4-(5-(4-amino-3-(4-phenoxyphenyl)-1H-pyrazolo[3,4-d]pyrimidin-1-yl)pyridin-2-yl)piperazin-1-yl)methyl)cyclohexyl)methyl)piperazin-1-yl)-2-methylphenyl)dihydropyrimidine-2,4(1H,3H)-dione], the IC50 is below 0.5 µM.
For `COc1ccc(F)cc1C(=O)NCc1ccc(-c2nn(-c3ccc(N4CCN(CC5CCN(c6ccc7c(c6)CN(C6CCC(=O)NC6=O)C7=O)CC5)CC4)nc3)c3ncnc(N)c23)cc1F` (stereo not shown) [II-5, N-(4-(4-amino-1-(6-(4-((1-(2-(2,6-dioxopiperidin-3-yl)-1-oxoisoindolin-5-yl)piperidin-4-yl)methyl)piperazin-1-yl)pyridin-3-yl)-1H-pyrazolo[3,4-d]pyrimidin-3-yl)-2-fluorobenzyl)-5-fluoro-2-methoxybenzamide], the concentration for half-maximal inhibition (IC50) worked out at 0.009 µM.
Turning to `COc1ccc(F)cc1C(=O)NCc1ccc(-c2nn(-c3ccc(C4CCN(CC5CCN(c6ccc7c(c6)C(=O)N(C6CCC(=O)NC6=O)C7)CC5)CC4)cc3)c(N)c2C(N)=O)cc1` (stereo not shown) [II-39], the half-maximal inhibitory concentration (IC50) was below 0.025 µM.
As to `COc1ccc(F)cc1C(=O)NCc1ccc(-c2nn(-c3ccc(N4CCN(CC5CCN(c6ccc7c(c6)CN(C6CCC(=O)NC6=O)C7=O)CC5)CC4)nc3)c3ncnc(N)c23)cc1C` (stereo not shown) [II-2, N-(4-(4-amino-1-(6-(4-((1-(2-(2,6-dioxopiperidin-3-yl)-1-oxoisoindolin-5-yl)piperidin-4-yl)methyl)piperazin-1-yl)pyridin-3-yl)-1H-pyrazolo[3,4-d]pyrimidin-3-yl)-2-methylbenzyl)-5-fluoro-2-methoxybenzamide], the IC50 came out at 0.017 µM.
On to `COc1ccc(F)cc1C(=O)NCc1ccc(-c2nn(-c3ccc(C4CCN(CC5CCN(c6ccc(N7CCC(=O)NC7=O)c(C)c6)CC5)CC4)nc3)c3ncnc(N)c23)cc1` [Compound I-7, N-(4-(4-amino-1-(6-(1-((1-(4-(2,4-dioxotetrahydropyrimidin-1(2H)-yl)-3-methylphenyl)piperidin-4-yl)methyl)piperidin-4-yl)pyridin-3-yl)-1H-pyrazolo[3,4-d]pyrimidin-3-yl)benzyl)-5-fluoro-2-methoxybenzamide], for which the IC50 is below 0.05 µM.
For the compound `COc1ccc(F)cc1C(=O)NCc1ccc(-n2c(=O)n(-c3ccc(N4CCN(CC5CCN(c6ccc(N7CCC(=O)NC7=O)c(C)c6)CC5)CC4)cc3)c3ccnc(N)c32)cc1` [Compound I-48], the IC50 is below 0.025 µM.
Still for that read-out and setting: with `COc1ccc(F)cc1C(=O)NCc1ccc(-c2nc(-c3ccc(N4CC5CC(C4)N5CC4CCN(c5ccc(N6CCC(=O)NC6=O)c(C)c5)CC4)cc3)n3ccnc(N)c23)cc1` [Compound I-53] the figure was below 0.05 µM; with `COc1ccc(F)cc1C(=O)NCc1ccc(-c2nn(-c3ccc(N4CCC(CN5CCN(c6ccc7c(c6)C(=O)N(C6CCC(=O)NC6=O)C7)CC5)CC4)nc3)c3ncnc(N)c23)cc1` (stereo not shown) [II-4, N-(4-(4-amino-1-(6-(4-((4-(2-(2,6-dioxopiperidin-3-yl)-3-oxoisoindolin-5-yl)piperazin-1-yl)methyl)piperidin-1-yl)pyridin-3-yl)-1H-pyrazolo[3,4-d]pyrimidin-3-yl)benzyl)-5-fluoro-2-methoxybenzamide], 0.012 µM; with `COc1ccc(F)cc1C(=O)NCc1ccc(-c2nn(-c3ccc(C4CCN(CC5CCN(c6ccc(N7CCC(=O)NC7=O)c(C)c6)CC5)CC4)cc3)c3ncnc(N)c23)cc1` [Compound I-5, N-(4-(4-amino-1-(4-(1-((1-(4-(2,4-dioxotetrahydropyrimidin-1(2H)-yl)-3-methylphenyl)piperidin-4-yl)methyl)piperidinyl)phenyl)-1H-pyrazolo[3,4-d]pyrimidin-3-yl)benzyl)-5-fluoro-2-methoxybenzamide], 0.084 µM.
Turning to `COc1ccc(F)cc1C(=O)NCc1ccc(-c2nn(-c3ccc(N4CCN(CC5CCN(c6ccc7c(c6)C(=O)N(C6CCC(=O)NC6=O)C7)CC5)CC4)cc3)c(N)c2C(N)=O)cc1` (stereo not shown) [II-10], the 50% inhibitory concentration (IC50) is below 0.025 µM.
Regarding `COc1ccc(F)cc1C(=O)NCc1ccc(-c2nc(-c3ccc(N4CCN(CC5CCN(c6ccc(N7CCC(=O)NC7=O)c(C)c6)CC5)CC4)c(OC)c3)n3ccnc(N)c23)cc1` [Compound I-51], the half-inhibitory concentration (IC50) was below 0.025 µM.
On the same count and under the same terms, with `COc1ccc(F)cc1C(=O)NCc1ccc(-c2nn(-c3ccc(C4CCN(CC5CCN(c6ccc7c(c6)C(=O)N(C6CCC(=O)NC6=O)C7=O)CC5)CC4)nc3)c3ncnc(N)c23)cc1` (stereo not shown) [II-7, N-(4-(4-amino-1-(6-(1-((1-(2-(2,6-dioxopiperidin-3-yl)-1,3-dioxoisoindolin-5-yl)piperidin-4-yl)methyl)piperidin-4-yl)pyridin-3-yl)-1H-pyrazolo[3,4-d]pyrimidin-3-yl)benzyl)-5-fluoro-2-methoxybenzamide] the figure was 0.018 µM; with `COc1ccc(F)cc1C(=O)NCc1ccc(-c2nn(-c3ccc(C4CCN(CC5CCN(c6ccc(C7CCC(=O)NC7=O)cc6)CC5)CC4)nc3)c3ncnc(N)c23)cc1` (stereo not shown) [Compound I-24], below 0.1 µM.

Values taken from US20260248784A1, “BTK Degrader and Use Thereof” (JIANGSU VCARE PHARMATECH CO., LTD., priority 2023, published 2026).
